ChEMBL document CHEMBL1671661, “Inhibition of intracellular growth of Salmonella enterica serovar Typhimurium in tissue culture by antisense peptide-phosphorodiamidate morpholino oligomer” (Antimicrob Agents Chemother, 2009)
Converted amounts (≈) assume the structure as drawn. The source made the active and inactive calls. The rule behind the calls is not given here.

Experiments:
Salmonella typhimurium [1] = assay: Antibacterial activity against Salmonella enterica serovar Typhimurium 14028s by CLSI M7-A7 microdilution method; type: functional, Salmonella enterica subsp. enterica serovar Typhimurium
Salmonella typhimurium [2] = assay: Antibacterial activity against 9.0 x 10^7 CFU/ml Salmonella enterica serovar Typhimurium 14028s assessed as decrease in growth rate at 2.5 uM by spectrophotometry; type: functional, organism-based; conditions: Salmonella enterica subsp. enterica serovar Typhimurium
Salmonella typhimurium [3] = assay: Antibacterial activity against 9.0 x 10^7 CFU/ml Salmonella enterica serovar Typhimurium 14028s assessed as decrease in bacterial viable cell count at 2.5 uM by spectrophotometry; type: functional, organism-based; conditions: Salmonella enterica subsp. enterica serovar Typhimurium
Salmonella typhimurium [4] = assay: Antibacterial activity against 9.0 x 10^7 CFU/ml Salmonella enterica serovar Typhimurium 14028s assessed as decrease in growth rate at 50 uM by spectrophotometry; type: functional, organism-based; conditions: Salmonella enterica subsp. enterica serovar Typhimurium
Serum = assay: Drug concentration in rat serum administered as single bolus dose; type: ADME, organism-based; conditions: in vivo
Salmonella typhimurium [5] = assay: Antibacterial activity against 9.0 x 10^7 CFU/ml Salmonella enterica serovar Typhimurium 14028s infected in RAW264.7 mouse macrophages assessed as decrease in intracellular bacterial level at 3 uM measured 42 hrs post infection relative to untreated control; type: functional
Salmonella typhimurium [6] = assay: Antibacterial activity against 9.0 x 10^7 CFU/ml Salmonella enterica serovar Typhimurium 14028s infected in RAW264.7 mouse macrophages assessed as decrease in intracellular bacterial level at 3 uM measured 18 hrs post infection; type: functional, organism-based; conditions: Salmonella enterica subsp. enterica serovar Typhimurium
Salmonella typhimurium [7] = assay: Antibacterial activity against 9.0 x 10^7 CFU/ml Salmonella enterica serovar Typhimurium 14028s infected in RAW264.7 mouse macrophages assessed as decrease in intracellular bacterial level at 3 uM measured 2 hrs post infection; type: functional
Salmonella typhimurium [8] = assay: Antibacterial activity against 9.0 x 10^7 CFU/ml Salmonella enterica serovar Typhimurium 14028s assessed as decrease in bacterial viable cell count at 2.5 uM by spectrophotometry relative to untreated control; type: functional, Salmonella enterica subsp. enterica serovar Typhimurium
[9] = Salmonella enterica subsp. enterica serovar Typhimurium

| Compound | MIC (Salmonella typhimurium [1]) [µM] | Activity (Salmonella typhimurium [2]) | Activity (Salmonella typhimurium [3]) | Activity (Salmonella typhimurium [4]) | Drug uptake (Serum) [µg/mL] | Activity (Salmonella typhimurium [5]; [9]) | Activity (Salmonella typhimurium [6]) | Activity (Salmonella typhimurium [7]; [9]) | fold change (FC) (Salmonella typhimurium [5]) | Activity (Salmonella typhimurium [7]) [%] | fold change (FC) (Salmonella typhimurium [8]) |
| --- | --- | --- | --- | --- | --- | --- | --- | --- | --- | --- | --- |
| CC(=O)N[C@@H](CCCNC(=N)N)C(=O)NCCCCCC(=O)N[C@@H](CCCNC(=N)N)C(=O)N[C@@H](CCCNC(=N)N)C(=O)NCCCCCC(=O)N[C@@H](CCCNC(=N)N)C(=O)[C@H](CCCNC(=N)N)NC(=O)CCCCCNC(=O)N[C@@H](CCCNC(=N)N)C(=O)N[C@@H](CCCNC(=N)N)C(=O)NCCCCCC(=O)N[C@@H](CCCNC(=N)N)C(=O)NCCCCCC(=O)NCCC(=O)N1C[C@@H](COP(=O)(N(C)C)N2C[C@@H](COP(=O)(N(C)C)N3C[C@@H](COP(=O)(N(C)C)N4C[C@@H](COP(=O)(N(C)C)N5C[C@@H](COP(=O)(N(C)C)N6C[C@@H](COP(=O)(N(C)C)N7C[C@@H](COP(=O)(N(C)C)N8C[C@@H](COP(=O)(N(C)C)N9C[C@@H](COP(=O)(N(C)C)N%10C[C@@H](COP(=O)(N(C)C)N%11C[C@@H](CO)O[C@@H](n%12cc(C)c(=O)[nH]c%12=O)C%11)O[C@@H](n%11ccc(N)nc%11=O)C%10)O[C@@H](n%10cc(C)c(=O)[nH]c%10=O)C9)O[C@@H](n9ccc(N)nc9=O)C8)O[C@@H](n8cnc9c(N)ncnc98)C7)O[C@@H](n7cnc8c(=O)[nH]c(N)nc87)C6)O[C@@H](n6cnc7c(N)ncnc76)C5)O[C@@H](n5cc(C)c(=O)[nH]c5=O)C4)O[C@@H](n4cnc5c(=O)[nH]c(N)nc54)C3)O[C@@H](n3cnc4c(=O)[nH]c(N)nc43)C2)O[C@@H](n2cc(C)c(=O)[nH]c2=O)C1 (stereo partly drawn) | > 160 | inactive | inactive | – | – | – | – | – | – | – | – |
| CC1(C)S[C@@H]2[C@H](NC(=O)[C@H](N)c3ccccc3)C(=O)N2[C@H]1C(=O)O [AMPICILLIN] | 20 (≈ 6.99 µg/mL) | – | – | – | – | – | – | – | – | – | – |
| CC(=O)N[C@@H](CCCNC(=N)N)C(=O)NCCCCCC(=O)N[C@@H](CCCNC(=N)N)C(=O)N[C@@H](CCCNC(=N)N)C(=O)NCCCCCC(=O)N[C@@H](CCCNC(=N)N)C(=O)[C@H](CCCNC(=N)N)NC(=O)CCCCCNC(=O)N[C@@H](CCCNC(=N)N)C(=O)N[C@@H](CCCNC(=N)N)C(=O)NCCCCCC(=O)N[C@@H](CCCNC(=N)N)C(=O)NCCCCCC(=O)NCCC(=O)N1C[C@@H](COP(=O)(N(C)C)N2C[C@@H](COP(=O)(N(C)C)N3C[C@@H](COP(=O)(N(C)C)N4C[C@@H](COP(=O)(N(C)C)N5C[C@@H](COP(=O)(N(C)C)N6C[C@@H](COP(=O)(N(C)C)N7C[C@@H](COP(=O)(N(C)C)N8C[C@@H](COP(=O)(N(C)C)N9C[C@@H](COP(=O)(N(C)C)N%10C[C@@H](COP(=O)(N(C)C)N%11C[C@@H](CO)O[C@@H](n%12ccc(N)nc%12=O)C%11)O[C@@H](n%11cc(C)c(=O)[nH]c%11=O)C%10)O[C@@H](n%10cc(C)c(=O)[nH]c%10=O)C9)O[C@@H](n9ccc(N)nc9=O)C8)O[C@@H](n8cnc9c(=O)[nH]c(N)nc98)C7)O[C@@H](n7cnc8c(N)ncnc87)C6)O[C@@H](n6cc(C)c(=O)[nH]c6=O)C5)O[C@@H](n5cnc6c(N)ncnc65)C4)O[C@@H](n4cnc5c(=O)[nH]c(N)nc54)C3)O[C@@H](n3cc(C)c(=O)[nH]c3=O)C2)O[C@@H](n2cnc3c(=O)[nH]c(N)nc32)C1 (stereo partly drawn) | 1.25 (≈ 6.92 µg/mL) | inactive | Active | Active | 1 | – | – | – | – | – | – |
| CC(=O)N[C@@H](CCCNC(=N)N)C(=O)NCCCCCC(=O)N[C@@H](CCCNC(=N)N)C(=O)N[C@@H](CCCNC(=N)N)C(=O)NCCCCCC(=O)N[C@@H](CCCNC(=N)N)C(=O)[C@H](CCCNC(=N)N)NC(=O)CCCCCNC(=O)N[C@@H](CCCNC(=N)N)C(=O)N[C@@H](CCCNC(=N)N)C(=O)NCCCCCC(=O)N[C@@H](CCCNC(=N)N)C(=O)NCCCCCC(=O)NCCC(=O)N1C[C@@H](COP(=O)(N2CCNCC2)N2C[C@@H](COP(=O)(N(C)C)N3C[C@@H](COP(=O)(N(C)C)N4C[C@@H](COP(=O)(N5CCNCC5)N5C[C@@H](COP(=O)(N(C)C)N6C[C@@H](COP(=O)(N(C)C)N7C[C@@H](COP(=O)(N(C)C)N8C[C@@H](COP(=O)(N(C)C)N9C[C@@H](COP(=O)(N%10CCNCC%10)N%10C[C@@H](COP(=O)(N(C)C)N%11C[C@@H](CO)O[C@@H](n%12cc(C)c(=O)[nH]c%12=O)C%11)O[C@@H](n%11ccc(N)nc%11=O)C%10)O[C@@H](n%10cc(C)c(=O)[nH]c%10=O)C9)O[C@@H](n9ccc(N)nc9=O)C8)O[C@@H](n8cnc9c(N)ncnc98)C7)O[C@@H](n7cnc8c(=O)[nH]c(N)nc87)C6)O[C@@H](n6cnc7c(N)ncnc76)C5)O[C@@H](n5cc(C)c(=O)[nH]c5=O)C4)O[C@@H](n4cnc5c(=O)[nH]c(N)nc54)C3)O[C@@H](n3cnc4c(=O)[nH]c(N)nc43)C2)O[C@@H](n2cc(C)c(=O)[nH]c2=O)C1 (stereo partly drawn) | > 160 | inactive | inactive | – | – | inactive | inactive | inactive | – | – | – |
| CC(=O)N[C@@H](CCCNC(=N)N)C(=O)NCCCCCC(=O)N[C@@H](CCCNC(=N)N)C(=O)N[C@@H](CCCNC(=N)N)C(=O)NCCCCCC(=O)N[C@@H](CCCNC(=N)N)C(=O)[C@H](CCCNC(=N)N)NC(=O)CCCCCNC(=O)N[C@@H](CCCNC(=N)N)C(=O)N[C@@H](CCCNC(=N)N)C(=O)NCCCCCC(=O)N[C@@H](CCCNC(=N)N)C(=O)NCCCCCC(=O)NCCC(=O)N1C[C@@H](COP(=O)(N(C)C)N2C[C@@H](COP(=O)(N3CCNCC3)N3C[C@@H](COP(=O)(N(C)C)N4C[C@@H](COP(=O)(N(C)C)N5C[C@@H](COP(=O)(N6CCNCC6)N6C[C@@H](COP(=O)(N(C)C)N7C[C@@H](COP(=O)(N(C)C)N8C[C@@H](COP(=O)(N(C)C)N9C[C@@H](COP(=O)(N(C)C)N%10C[C@@H](COP(=O)(N%11CCNCC%11)N%11C[C@@H](CO)O[C@@H](n%12ccc(N)nc%12=O)C%11)O[C@@H](n%11cc(C)c(=O)[nH]c%11=O)C%10)O[C@@H](n%10cc(C)c(=O)[nH]c%10=O)C9)O[C@@H](n9ccc(N)nc9=O)C8)O[C@@H](n8cnc9c(=O)[nH]c(N)nc98)C7)O[C@@H](n7cnc8c(N)ncnc87)C6)O[C@@H](n6cc(C)c(=O)[nH]c6=O)C5)O[C@@H](n5cnc6c(N)ncnc65)C4)O[C@@H](n4cnc5c(=O)[nH]c(N)nc54)C3)O[C@@H](n3cc(C)c(=O)[nH]c3=O)C2)O[C@@H](n2cnc3c(=O)[nH]c(N)nc32)C1 (stereo partly drawn) | 0.156 (≈ 0.883 µg/mL) | Active | Active | – | 1 | – | Active | – | 2 | 56 | 3 |
